Results from patent US5250283A, “Organic contrast agent analog and method of making same” (priority 1992, dated 1993).
Where a name gives a salt, the structure may show the parent alone. Read-outs that look alike come from different tables or passages of the source.

How the values were obtained:
[1] = Tissue distribution 90 min after i.v. TFA-IOP (100 umol/kg) or IOP (100 in text, 104 umol/kg in tables) in rats; assay type: in vivo; conditions: rat; for concentration at 1.5 h / tissue uptake at 1.5 h: iv; for concentration at 1.5 h: 100 umol/kg; for Percentage of dose in tissue: Table 6; for tissue uptake at 1.5 h: in vivo, read-out: Percentage of dose per gram
Text: No standard curves were compiled for these tissues. The values given
represent concentrations generated using the LIVER analysis routine and
standard curve. Because this routine utilizes a control LIVER spectra for
background modeling, erroneous Iodine concentration values for these
tissues may result due to inappropriate background removal.

[2] = Urinary excretion after i.v. IOP or TFA-IOP in rats; assay type: in vivo; conditions: rat
[3] = Plasma concentration after i.v. IOP or TFA-IOP in rats; assay type: in vivo; conditions: rat
[4] = Biliary excretion and bile flow after i.v. TFA-IOP (100 umol/kg) or IOP (100 in text, 104 umol/kg in tables) in rats; conditions: for Percentage of dose per kg. body wt.: rat bile, i.v.
Procedure: Tissues examined included liver, spleen, upper GI, lower GI, kidney, lung and heart. The length of each study was 90 minutes, during which time bile, urine and plasma samples were taken to monitor uptake and excretion. NMR relaxation rates for liver and plasma were also examined to note whether uptake of either compound might possible alter these parameters.

[5] = i.v., 90 min, Table 1, liver standard curve, may be erroneous

CCC(Cc1c(I)cc(I)c(NC(=O)C(F)(F)F)c1I)C(=O)O (stereo not shown) [TFA-IOP, N-trifluoroacetyl-iopanoic acid]
concentration at 1.5 h ([1]; heart, i.v., 90 min, liver standard curve used, may be erroneous, read-out: Heart concentration): 243 µM
% of dose in kidney ([1]; i.v., 90 min, Table 1): 0.34%
% of dose in liver ([1]; i.v., 90 min, Table 1): 6.04%
% of dose in heart [1, 5]: 0.72%
% of dose in lower GI [1, 5]: 0.63%
% of dose in lung [1, 5]: 0.83%
% of dose in spleen [1, 5]: 0.24%
% of dose in upper GI [1, 5]: 0.41%
Percentage of dose per kg b.wt. ([1]; i.v., 90 min, heart): 1.66 PERCENTAGE OF DOSE per kg b.wt
uMoles in tissue ([1]; i.v., 90 min, heart): .31 µmol
uMoles per gram tissue ([1]; i.v., 90 min, heart): .24 uMOLES per gram
uMoles per kg ([1]; i.v., 90 min, heart): 242.85 uMOLES per kg
Percentage of dose in tissue ([1]; i.v., 90 min, heart): .72 PERCENTAGE OF DOSE
Percentage of dose per kg b.wt. ([1]; i.v., 90 min, kidney): .78 PERCENTAGE OF DOSE per kg b.wt
uMoles in tissue ([1]; i.v., 90 min, kidney): .15 µmol
uMoles per gram tissue ([1]; i.v., 90 min, kidney): .06 uMOLES per gram
uMoles per kg ([1]; i.v., 90 min, kidney): 57.84 uMOLES per kg
Percentage of dose in tissue ([1]; i.v., 90 min, kidney): .34 PERCENTAGE OF DOSE
Percentage of dose per kg b.wt. ([1]; i.v., 90 min, liver): 13.88 PERCENTAGE OF DOSE per kg b.wt
uMoles in tissue ([1]; i.v., 90 min, liver): 2.63 µmol
uMoles per gram tissue ([1]; i.v., 90 min, liver): .20 uMOLES per gram
uMoles per kg ([1]; i.v., 90 min, liver): 201.73 uMOLES per kg
Percentage of dose in tissue ([1]; i.v., 90 min, liver): 6.04 PERCENTAGE OF DOSE
Percentage of dose per kg b.wt. ([1]; i.v., 90 min, lower GI): 1.45 PERCENTAGE OF DOSE per kg b.wt
uMoles in tissue ([1]; i.v., 90 min, lower GI): .27 µmol
uMoles per gram tissue ([1]; i.v., 90 min, lower GI): .18 uMOLES per gram
uMoles per kg ([1]; i.v., 90 min, lower GI): 178.09 uMOLES per kg
Percentage of dose in tissue ([1]; i.v., 90 min, lower GI): .63 PERCENTAGE OF DOSE
Percentage of dose per kg b.wt. ([1]; i.v., 90 min, lung): 1.91 PERCENTAGE OF DOSE per kg b.wt
uMoles in tissue ([1]; i.v., 90 min, lung): .36 µmol
uMoles per gram tissue ([1]; i.v., 90 min, lung): .28 uMOLES per gram
uMoles per kg ([1]; i.v., 90 min, lung): 277.64 uMOLES per kg
Percentage of dose in tissue ([1]; i.v., 90 min, lung): .83 PERCENTAGE OF DOSE
Percentage of dose per kg b.wt. ([1]; i.v., 90 min, spleen): .55 PERCENTAGE OF DOSE per kg b.wt
uMoles in tissue ([1]; i.v., 90 min, spleen): .10 µmol
uMoles per gram tissue ([1]; i.v., 90 min, spleen): .16 uMOLES per gram
uMoles per kg ([1]; i.v., 90 min, spleen): 164.06 uMOLES per kg
Percentage of dose in tissue ([1]; i.v., 90 min, spleen): .24 PERCENTAGE OF DOSE
Percentage of dose per kg b.wt. ([1]; i.v., 90 min, upper GI): .94 PERCENTAGE OF DOSE per kg b.wt
uMoles in tissue ([1]; i.v., 90 min, upper GI): .18 µmol
uMoles per gram tissue ([1]; i.v., 90 min, upper GI): .14 uMOLES per gram
uMoles per kg ([1]; i.v., 90 min, upper GI): 140.23 uMOLES per kg
Percentage of dose in tissue ([1]; i.v., 90 min, upper GI): .41 PERCENTAGE OF DOSE
tissue uptake at 1.5 h ([1]; 90 min, heart): 0.56 %ID/g
tissue uptake at 1.5 h ([1]; 90 min, kidney): 0.13 %ID/g
tissue uptake at 1.5 h ([1]; 90 min, liver): 0.46 %ID/g
tissue uptake at 1.5 h ([1]; 90 min, lower GI): 0.41 %ID/g
tissue uptake at 1.5 h ([1]; 90 min, lung): 0.64 %ID/g
tissue uptake at 1.5 h ([1]; 90 min, spleen): 0.38 %ID/g
tissue uptake at 1.5 h ([1]; 90 min, upper GI): 0.32 %ID/g
concentration at 1.5 h ([1]; kidney, i.v., 90 min post injection, heading: kidney concentration, read-out: kidney concentration): 57.8 µM
concentration at 1.5 h ([1]; kidney, i.v., 90 min post injection, read-out: Kidney concentration): 57.8 µM
concentration at 1.5 h ([1]; liver, i.v., 90 min post injection, read-out: Liver concentration): 202 µM
concentration at 1.5 h ([1]; liver, i.v., 90 min post injection, read-out: liver concentration): 202 µM
concentration at 1.5 h ([1]; lower gi, i.v., 90 min, liver standard curve used, may be erroneous, read-out: Lower GI concentration): 178 µM
concentration at 1.5 h ([1]; lung, i.v., 90 min, liver standard curve used, may be erroneous, read-out: Lung concentration): 278 µM
concentration at 1.5 h ([1]; spleen, i.v., 90 min, liver standard curve used, may be erroneous, read-out: Spleen concentration): 164 µM
concentration at 1.5 h ([1]; upper gi, i.v., 90 min, liver standard curve used, may be erroneous, read-out: Upper GI concentration): 140 µM
Urine concentration ([2]; 0-20 min): 0 µM
Urine concentration ([2]; 20-40 min): 0 µM
concentration at 10 min ([3]; plasma, iv, 100 umol/kg, 10 min): 863 µM
concentration at 20 min ([3]; plasma, iv, 100 umol/kg, 20 min): 604 µM
concentration at 0.5 h ([3]; plasma, iv, 100 umol/kg, 30 min): 573 µM
concentration at 40 min ([3]; plasma, iv, 100 umol/kg, 40 min): 510 µM
concentration at 50 min ([3]; plasma, iv, 100 umol/kg, 50 min): 469 µM
concentration at 1 h ([3]; plasma, iv, 100 umol/kg, 60 min): 415 µM
concentration at 70 min ([3]; plasma, iv, 100 umol/kg, 70 min): 374 µM
concentration at 80 min ([3]; plasma, iv, 100 umol/kg, 80 min): 403 µM
concentration at 1.5 h ([3]; plasma, iv, 100 umol/kg, 90 min): 360 µM
Plasma concentration ([3]; 0 min): 0 nM
Percentage of dose per kg. body wt. ([4]; 0-10 min): 6.48 PERCENTAGE OF DOSE per kg. bod
Percentage of dose per kg. body wt. ([4]; 10-20 min): 11.22 PERCENTAGE OF DOSE per kg. bod
Percentage of dose per kg. body wt. ([4]; 20-30 min): 13.78 PERCENTAGE OF DOSE per kg. bod
Percentage of dose per kg. body wt. ([4]; 30-40 min): 12.34 PERCENTAGE OF DOSE per kg. bod
Percentage of dose per kg. body wt. ([4]; 40-50 min): 12.30 PERCENTAGE OF DOSE per kg. bod
Percentage of dose per kg. body wt. ([4]; 50-60 min): 12.60 PERCENTAGE OF DOSE per kg. bod
Percentage of dose per kg. body wt. ([4]; 60-70 min): 7.73 PERCENTAGE OF DOSE per kg. bod
Percentage of dose per kg. body wt. ([4]; 70-80 min): 7.44 PERCENTAGE OF DOSE per kg. bod
Percentage of dose per kg. body wt. ([4]; 80-90 min): 6.37 PERCENTAGE OF DOSE per kg. bod
Percentage of dose per kg. body wt. ([4]; period 10-0 min (pre-injection)): .70 PERCENTAGE OF DOSE per kg. bod
Cmax at 1.5 h ([4]; rat, bile, iv, 100 umol/kg): 0.5 µM
concentration at 0 h ([4]; rat, bile, iv, 100 umol/kg): 635 µM
concentration at 5 min ([4]; rat, bile, iv, 100 umol/kg): 3010 µM
concentration at 10 min ([4]; rat, bile, iv, 100 umol/kg): 3010 µM
concentration at 0.25 h ([4]; rat, bile, iv, 100 umol/kg): 5780 µM
concentration at 20 min ([4]; rat, bile, iv, 100 umol/kg): 5780 µM
concentration at 25 min ([4]; rat, bile, iv, 100 umol/kg): 6440 µM
concentration at 0.5 h ([4]; rat, bile, iv, 100 umol/kg): 6440 µM
concentration at 35 min ([4]; rat, bile, iv, 100 umol/kg): 7800 µM
concentration at 40 min ([4]; rat, bile, iv, 100 umol/kg): 7800 µM
concentration at 50 min ([4]; rat, bile, iv, 100 umol/kg): 7640 µM
concentration at 55 min ([4]; rat, bile, iv, 100 umol/kg): 8460 µM
concentration at 1 h ([4]; rat, bile, iv, 100 umol/kg): 8460 µM
concentration at 65 min ([4]; rat, bile, iv, 100 umol/kg): 5370 µM
concentration at 70 min ([4]; rat, bile, iv, 100 umol/kg): 5370 µM
concentration at 1.25 h ([4]; rat, bile, iv, 100 umol/kg): 5310 µM
concentration at 80 min ([4]; rat, bile, iv, 100 umol/kg): 5310 µM
concentration at 85 min ([4]; rat, bile, iv, 100 umol/kg): 4660 µM
concentration at 1.5 h ([4]; rat, bile, iv, 100 umol/kg): 4660 µM
dose excreted at 1.5 h ([4]; rat, bile, iv, 100 umol/kg): 40%
